The source made the active and inactive calls. The calls are words filed in the database; no cut-off is given here.

Data set [1] deals with T1, Protein cereblon/Androgen receptor (Homo sapiens) (UniProt P10275+Q96SW2). The experiment in a line: PROTAC activity at CRBN/AR in human LNCaP cells assessed as induction of AR degradation by measuring downregulation of AR protein expression at 30 uM measured after 24 hrs by western blot assay. Type of data set: cell-based.
For data set [2], the target named is T1, Protein cereblon/Androgen receptor (Homo sapiens). The experiment in a line: PROTAC activity at CRBN/AR in human LNCaP cells assessed as induction of AR degradation by measuring downregulation of AR protein expression measured after 24 hrs by western blot assay. The note with it: dose 10-30 µM. Type of data set: cell-based.
Data set [3] can be described thus: Drug uptake in AR-negative human PC-3 cells assessed as increase in fluorescence intensity at 10 uM incubated for 24 hrs by DAPI staining based confocal laser scanning microscopy. The data set is classed as ADME, cell-based. As to conditions: pc-3, 24 h.
A short description of data set [4]: Drug uptake in AR-positive human LNCaP cells assessed as increase in fluorescence intensity at 10 uM incubated for 24 hrs by DAPI staining based confocal laser scanning microscopy. The data set is classed as ADME.

T1 sequence (P10275 whole entry, looked up): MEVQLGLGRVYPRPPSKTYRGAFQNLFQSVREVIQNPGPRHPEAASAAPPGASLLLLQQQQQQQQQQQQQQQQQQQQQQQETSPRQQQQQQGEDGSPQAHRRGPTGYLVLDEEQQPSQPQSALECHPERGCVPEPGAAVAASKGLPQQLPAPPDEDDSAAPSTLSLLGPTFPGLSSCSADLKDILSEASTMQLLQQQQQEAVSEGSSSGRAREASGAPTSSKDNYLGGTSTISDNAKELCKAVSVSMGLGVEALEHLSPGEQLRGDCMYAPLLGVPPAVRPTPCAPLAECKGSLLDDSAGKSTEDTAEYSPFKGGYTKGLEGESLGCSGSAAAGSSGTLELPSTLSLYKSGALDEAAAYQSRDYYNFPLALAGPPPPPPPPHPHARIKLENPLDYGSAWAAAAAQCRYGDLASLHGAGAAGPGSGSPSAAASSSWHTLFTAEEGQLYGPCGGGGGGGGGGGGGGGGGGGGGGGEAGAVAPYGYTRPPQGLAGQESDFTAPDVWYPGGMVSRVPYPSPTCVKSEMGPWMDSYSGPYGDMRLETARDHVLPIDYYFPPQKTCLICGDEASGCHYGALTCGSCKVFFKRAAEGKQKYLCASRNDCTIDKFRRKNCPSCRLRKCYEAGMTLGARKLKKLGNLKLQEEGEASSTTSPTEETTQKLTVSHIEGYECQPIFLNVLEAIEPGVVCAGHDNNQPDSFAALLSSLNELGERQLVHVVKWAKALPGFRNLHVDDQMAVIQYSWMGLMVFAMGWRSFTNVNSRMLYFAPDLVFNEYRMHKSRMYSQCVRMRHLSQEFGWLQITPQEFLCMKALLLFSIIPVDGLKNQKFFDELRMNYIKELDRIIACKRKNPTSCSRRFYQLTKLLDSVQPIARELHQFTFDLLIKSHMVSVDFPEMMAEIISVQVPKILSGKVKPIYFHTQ
T1 sequence (Q96SW2 whole entry, looked up): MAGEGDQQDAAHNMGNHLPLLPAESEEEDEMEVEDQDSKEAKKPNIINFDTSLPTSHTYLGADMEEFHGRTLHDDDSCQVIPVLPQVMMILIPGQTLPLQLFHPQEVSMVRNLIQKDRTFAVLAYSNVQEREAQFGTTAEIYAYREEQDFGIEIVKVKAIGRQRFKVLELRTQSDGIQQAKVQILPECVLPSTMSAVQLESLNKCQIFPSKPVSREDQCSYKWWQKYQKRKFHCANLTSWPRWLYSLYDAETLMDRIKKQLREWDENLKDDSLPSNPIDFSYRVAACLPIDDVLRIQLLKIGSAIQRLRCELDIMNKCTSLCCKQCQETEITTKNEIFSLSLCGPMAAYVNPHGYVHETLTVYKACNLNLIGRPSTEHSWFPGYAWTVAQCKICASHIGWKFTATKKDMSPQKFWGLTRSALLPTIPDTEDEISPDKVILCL

Regarding `CC1(C)C(=O)N(c2ccc(C#N)c(C(F)(F)F)c2)C(=S)N1CCCn1cc(COCCOCCOc2cccc3c2C(=O)N(C2CCC(=O)NC2=O)C3=O)nn1` (centres undefined), the result in data set [1] was Active. Also, the Activity result in data set [2] is “Dose-Dependent Effect”.

Regarding `Nc1cccc2c1C(=O)N(C1CCC(=O)NC1=O)C2=O` (centres undefined) [POMALIDOMIDE], the Drug uptake entry in data set [3] and in data set [4] was “Active” throughout.

The values are drawn from ChEMBL document CHEMBL4834485, “Designed, synthesized and biological evaluation of proteolysis targeting chimeras (PROTACs) as AR degraders for prostate cancer treatment” (Bioorg Med Chem, 2021).
